Measurements: ChEMBL document CHEMBL1201862, “PubChem BioAssay data set” (2004)
Calls of active or inactive are those of the source.

Key:
[1] = biological target: Cystic fibrosis transmembrane conductance regulator/Golgi-associated PDZ and coiled-coil motif-containing protein (Homo sapiens, UniProt P13569+Q9HD26); test: CAL PDZ peptide-binding inhibitors, dose response, biochemical, fluorescence polarization, Cerulean-tagged CAL PDZ, cherry-picks (AID 504773)
Cytochrome P450 2C9 [2] = biological target: T1, Cytochrome P450 2C9 (Homo sapiens, UniProt P11712)
T1 sequence (P11712 whole entry): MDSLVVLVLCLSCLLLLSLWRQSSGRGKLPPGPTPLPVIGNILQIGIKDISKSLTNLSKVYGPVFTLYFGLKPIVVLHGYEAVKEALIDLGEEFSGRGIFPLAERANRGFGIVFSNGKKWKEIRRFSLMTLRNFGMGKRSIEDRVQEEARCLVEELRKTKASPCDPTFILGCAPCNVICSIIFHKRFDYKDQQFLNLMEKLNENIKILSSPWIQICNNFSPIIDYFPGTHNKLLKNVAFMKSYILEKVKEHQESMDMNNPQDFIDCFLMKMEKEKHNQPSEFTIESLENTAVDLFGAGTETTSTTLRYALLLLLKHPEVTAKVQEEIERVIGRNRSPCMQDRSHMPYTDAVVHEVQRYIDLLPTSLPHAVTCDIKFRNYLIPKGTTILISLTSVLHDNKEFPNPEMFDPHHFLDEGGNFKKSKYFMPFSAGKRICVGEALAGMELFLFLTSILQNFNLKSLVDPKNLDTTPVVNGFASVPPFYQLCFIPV

Cytochrome P450 1A2 = biological target: T2, Cytochrome P450 1A2 (Homo sapiens, UniProt P05177);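 also: PubChem cytochrome P450 panel assay, CYP1A2 panel member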
T2 sequence (P05177 whole entry): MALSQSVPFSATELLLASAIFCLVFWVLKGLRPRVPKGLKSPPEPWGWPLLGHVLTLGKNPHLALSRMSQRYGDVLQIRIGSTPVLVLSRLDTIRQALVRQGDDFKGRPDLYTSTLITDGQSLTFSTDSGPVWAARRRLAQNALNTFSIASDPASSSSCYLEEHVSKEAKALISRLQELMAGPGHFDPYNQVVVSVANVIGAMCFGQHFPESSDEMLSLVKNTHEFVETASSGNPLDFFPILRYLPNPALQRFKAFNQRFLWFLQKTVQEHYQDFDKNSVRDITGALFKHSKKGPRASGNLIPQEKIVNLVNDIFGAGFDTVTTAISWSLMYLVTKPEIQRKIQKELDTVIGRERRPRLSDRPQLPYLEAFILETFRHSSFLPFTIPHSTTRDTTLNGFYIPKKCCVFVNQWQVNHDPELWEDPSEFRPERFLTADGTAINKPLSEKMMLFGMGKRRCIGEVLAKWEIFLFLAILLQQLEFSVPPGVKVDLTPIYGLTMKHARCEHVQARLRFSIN

Cytochrome P450 2C9 [3] = biological target: T1, Cytochrome P450 2C9; settings: Potency
[4] = biological target: T3, Replicative DNA helicase DnaB (Mycobacterium tuberculosis, UniProt P9WMR3); test: DnaB intein splicing inhibitors, dose response, biochemical, cell-free fluorescence (AID 449749); assay type: functional
T3 sequence (P9WMR3 whole entry): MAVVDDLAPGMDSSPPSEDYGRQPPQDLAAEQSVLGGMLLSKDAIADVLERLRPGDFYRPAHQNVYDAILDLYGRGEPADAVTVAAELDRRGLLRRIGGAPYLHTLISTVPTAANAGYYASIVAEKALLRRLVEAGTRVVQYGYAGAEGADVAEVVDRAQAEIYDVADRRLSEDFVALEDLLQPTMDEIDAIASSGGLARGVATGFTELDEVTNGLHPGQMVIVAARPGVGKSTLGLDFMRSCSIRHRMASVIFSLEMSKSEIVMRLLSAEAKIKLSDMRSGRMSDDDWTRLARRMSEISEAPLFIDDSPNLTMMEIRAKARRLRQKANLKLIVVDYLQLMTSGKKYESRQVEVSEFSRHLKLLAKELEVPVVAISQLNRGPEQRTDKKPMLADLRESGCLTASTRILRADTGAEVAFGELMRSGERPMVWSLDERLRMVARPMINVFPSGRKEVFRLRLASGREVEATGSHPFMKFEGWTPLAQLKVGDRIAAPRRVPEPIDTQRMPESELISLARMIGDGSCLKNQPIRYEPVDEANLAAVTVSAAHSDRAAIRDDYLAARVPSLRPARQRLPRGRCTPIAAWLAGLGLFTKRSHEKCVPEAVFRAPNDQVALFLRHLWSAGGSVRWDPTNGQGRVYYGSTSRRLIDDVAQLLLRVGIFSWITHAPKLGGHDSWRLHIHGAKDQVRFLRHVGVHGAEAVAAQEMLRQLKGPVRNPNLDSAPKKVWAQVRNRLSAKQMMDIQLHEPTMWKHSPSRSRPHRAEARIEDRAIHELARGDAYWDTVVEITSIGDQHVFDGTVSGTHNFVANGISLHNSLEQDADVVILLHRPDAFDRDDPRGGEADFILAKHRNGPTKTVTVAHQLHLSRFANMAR

Protein RecA = biological target: T4, Protein RecA (Mycobacterium tuberculosis, UniProt P9WHJ3); test: Fluorescence Cell-Free Homogeneous Dose Retest to Identify Inhibitors of RecA-Intein Splicing Activity. [Related pubchem assays (depositor defined):AID2097, AID2223, AID489010, AID492950]; assay type: functional
T4 sequence (P9WHJ3 whole entry): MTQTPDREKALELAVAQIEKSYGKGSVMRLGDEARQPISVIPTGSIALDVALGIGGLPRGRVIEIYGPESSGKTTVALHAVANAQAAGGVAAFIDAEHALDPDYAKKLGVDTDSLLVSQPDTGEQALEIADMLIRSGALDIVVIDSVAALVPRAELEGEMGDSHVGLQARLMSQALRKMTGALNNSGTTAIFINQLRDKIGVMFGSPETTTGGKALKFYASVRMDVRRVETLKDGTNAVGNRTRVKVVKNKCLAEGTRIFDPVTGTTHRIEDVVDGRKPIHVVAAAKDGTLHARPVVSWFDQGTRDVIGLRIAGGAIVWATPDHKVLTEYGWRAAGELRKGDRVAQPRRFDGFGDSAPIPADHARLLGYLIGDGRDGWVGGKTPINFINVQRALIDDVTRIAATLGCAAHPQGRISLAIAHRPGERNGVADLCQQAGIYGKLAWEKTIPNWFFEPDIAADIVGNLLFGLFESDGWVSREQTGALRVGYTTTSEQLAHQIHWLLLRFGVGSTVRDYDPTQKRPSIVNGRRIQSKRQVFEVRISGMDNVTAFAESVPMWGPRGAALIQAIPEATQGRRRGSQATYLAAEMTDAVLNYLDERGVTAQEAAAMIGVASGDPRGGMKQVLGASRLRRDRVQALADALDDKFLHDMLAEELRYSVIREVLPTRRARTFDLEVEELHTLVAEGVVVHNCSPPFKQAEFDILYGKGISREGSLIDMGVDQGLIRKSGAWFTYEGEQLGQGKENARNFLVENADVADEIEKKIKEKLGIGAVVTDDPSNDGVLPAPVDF

[5] = biological target: Neurotensin receptor type 1 (Homo sapiens, UniProt P30989); assay type: functional;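 also: Image-based confirmatory dose-response assay measuring agonist activity at NTR1; NTR1-expressing U2OS osteosarcoma cells imaged for beta-arrestin GFP spot formation; agonist potency where compounds increase beta-arrestin recruitment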
[6] = biological target: T5, Neuropeptides B/W receptor type 1 (Homo sapiens, UniProt P48145); test: Fluorescence-based dose response cell-based high throughput screening assay to identify antagonists of the G-protein coupled receptor 7 (GPR7). [Related pubchem assays: 1952 (Screening assay (GPR7 antagonists).), 1880 (Summary AID.)]; assay type: functional
T5 sequence (P48145 whole entry): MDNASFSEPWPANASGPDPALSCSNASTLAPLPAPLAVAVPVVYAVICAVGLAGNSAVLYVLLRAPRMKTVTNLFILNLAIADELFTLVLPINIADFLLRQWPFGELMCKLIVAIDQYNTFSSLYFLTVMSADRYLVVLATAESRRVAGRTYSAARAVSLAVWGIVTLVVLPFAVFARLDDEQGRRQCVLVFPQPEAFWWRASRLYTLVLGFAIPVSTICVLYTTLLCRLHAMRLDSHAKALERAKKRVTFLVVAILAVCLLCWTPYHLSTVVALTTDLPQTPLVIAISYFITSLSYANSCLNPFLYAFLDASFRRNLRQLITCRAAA

[7] = biological target: Voltage-dependent T-type calcium channel subunit alpha-1H (Homo sapiens, UniProt O95180); assay type: functional;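 also: channel activity triggered by adding a high calcium stimulation buffer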
Sequence of Voltage-dependent T-type calcium channel subunit alpha-1H (O95180 whole entry): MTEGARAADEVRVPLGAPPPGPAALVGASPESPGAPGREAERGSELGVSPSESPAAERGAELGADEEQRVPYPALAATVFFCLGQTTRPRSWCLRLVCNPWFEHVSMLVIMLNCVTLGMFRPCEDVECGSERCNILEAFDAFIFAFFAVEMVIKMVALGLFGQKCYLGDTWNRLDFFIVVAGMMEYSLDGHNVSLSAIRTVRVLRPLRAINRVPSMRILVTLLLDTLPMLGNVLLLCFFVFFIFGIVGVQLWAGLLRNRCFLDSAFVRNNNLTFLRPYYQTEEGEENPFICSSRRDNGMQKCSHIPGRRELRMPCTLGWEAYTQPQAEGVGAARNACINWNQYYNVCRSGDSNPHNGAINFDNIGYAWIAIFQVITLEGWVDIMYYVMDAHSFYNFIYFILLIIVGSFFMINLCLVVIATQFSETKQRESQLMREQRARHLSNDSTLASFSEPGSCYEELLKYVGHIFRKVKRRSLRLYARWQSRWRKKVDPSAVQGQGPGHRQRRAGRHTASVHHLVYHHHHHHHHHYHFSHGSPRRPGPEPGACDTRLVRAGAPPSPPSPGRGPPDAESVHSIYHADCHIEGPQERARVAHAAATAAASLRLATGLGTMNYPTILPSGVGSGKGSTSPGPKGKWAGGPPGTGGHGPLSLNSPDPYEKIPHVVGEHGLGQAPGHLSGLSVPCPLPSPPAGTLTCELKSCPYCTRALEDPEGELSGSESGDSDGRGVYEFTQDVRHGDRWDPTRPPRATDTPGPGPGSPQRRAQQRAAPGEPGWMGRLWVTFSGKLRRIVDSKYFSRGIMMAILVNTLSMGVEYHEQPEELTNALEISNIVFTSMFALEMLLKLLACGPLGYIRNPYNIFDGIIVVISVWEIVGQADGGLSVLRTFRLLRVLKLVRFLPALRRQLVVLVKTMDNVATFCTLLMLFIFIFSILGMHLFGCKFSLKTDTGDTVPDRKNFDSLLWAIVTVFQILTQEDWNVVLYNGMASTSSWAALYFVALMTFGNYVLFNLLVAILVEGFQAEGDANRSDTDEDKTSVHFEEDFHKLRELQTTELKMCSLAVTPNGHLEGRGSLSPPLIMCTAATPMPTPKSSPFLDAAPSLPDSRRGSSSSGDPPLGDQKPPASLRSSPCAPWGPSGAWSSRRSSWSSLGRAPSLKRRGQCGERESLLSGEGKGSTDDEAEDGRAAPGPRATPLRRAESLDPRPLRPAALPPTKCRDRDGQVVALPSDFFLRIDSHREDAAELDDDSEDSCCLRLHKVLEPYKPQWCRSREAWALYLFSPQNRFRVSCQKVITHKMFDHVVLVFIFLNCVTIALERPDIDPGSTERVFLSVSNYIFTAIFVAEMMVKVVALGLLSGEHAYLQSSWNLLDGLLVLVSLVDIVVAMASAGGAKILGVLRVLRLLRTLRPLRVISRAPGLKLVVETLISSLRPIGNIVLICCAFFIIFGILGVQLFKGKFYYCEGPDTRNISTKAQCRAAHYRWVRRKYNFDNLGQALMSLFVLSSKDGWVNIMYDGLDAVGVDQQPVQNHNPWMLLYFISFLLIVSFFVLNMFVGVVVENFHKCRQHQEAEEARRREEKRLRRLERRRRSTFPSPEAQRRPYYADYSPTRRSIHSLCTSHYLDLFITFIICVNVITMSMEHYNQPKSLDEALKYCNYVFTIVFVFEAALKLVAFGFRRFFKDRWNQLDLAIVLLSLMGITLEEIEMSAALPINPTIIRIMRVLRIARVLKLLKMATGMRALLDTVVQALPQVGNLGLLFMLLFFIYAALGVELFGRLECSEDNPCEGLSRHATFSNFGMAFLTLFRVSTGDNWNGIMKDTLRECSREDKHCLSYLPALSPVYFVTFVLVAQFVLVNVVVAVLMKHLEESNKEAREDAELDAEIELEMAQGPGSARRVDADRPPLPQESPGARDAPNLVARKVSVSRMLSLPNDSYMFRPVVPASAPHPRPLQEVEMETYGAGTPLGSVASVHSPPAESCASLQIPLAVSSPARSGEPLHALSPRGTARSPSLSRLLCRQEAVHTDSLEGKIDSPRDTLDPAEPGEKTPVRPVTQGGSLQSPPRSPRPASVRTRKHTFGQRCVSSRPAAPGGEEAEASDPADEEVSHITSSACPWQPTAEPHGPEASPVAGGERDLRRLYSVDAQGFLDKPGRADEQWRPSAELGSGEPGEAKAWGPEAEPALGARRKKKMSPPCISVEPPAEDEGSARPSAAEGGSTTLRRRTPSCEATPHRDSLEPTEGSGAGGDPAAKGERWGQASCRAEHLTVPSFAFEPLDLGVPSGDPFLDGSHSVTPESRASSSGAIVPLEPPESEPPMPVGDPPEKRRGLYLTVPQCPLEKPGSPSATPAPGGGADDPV

[8] = biological target: Melanin-concentrating hormone receptor 1 (Homo sapiens, UniProt Q99705); test: Fluorescence-based counterscreen for antagonists of the G-protein coupled receptor 7 (GPR7): cell-based high throughput dose response assay to identify antagonists of the melanin-concentrating hormone receptor 1 (MCHR1).; assay type: functional
Vero = test: Vero E6 cell cytotoxicity, SAR follow-up, cytotoxicity control for West Nile virus antiviral project, synthesized analogs (AID 2244); assay type: functional; settings: Chlorocebus sabaeus
X-box-binding protein 1 = X-box-binding protein 1 (Homo sapiens, UniProt P17861); assay type: functional, Cricetulus griseus;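 also: confirmatory dose-response counter-screen serving a CHOP assay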
[9] = biological target: Heat shock cognate 71 kDa protein (Homo sapiens, UniProt P11142); test: In Vitro Hsc70 Dose Response Fluorescence Polarization Assay. [Related pubchem assays: 1072 ]
[10] = biological target: Glyceraldehyde-3-phosphate dehydrogenase (Homo sapiens, UniProt P04406)
[11] = biological target: Heat shock 70 kDa protein 1A (Homo sapiens, UniProt P0DMV8); test: Hsp70 inhibitors, SAR follow-up, biochemical, fluorescence polarization (AID 1072)
Sequence of Heat shock 70 kDa protein 1A (P0DMV8 whole entry): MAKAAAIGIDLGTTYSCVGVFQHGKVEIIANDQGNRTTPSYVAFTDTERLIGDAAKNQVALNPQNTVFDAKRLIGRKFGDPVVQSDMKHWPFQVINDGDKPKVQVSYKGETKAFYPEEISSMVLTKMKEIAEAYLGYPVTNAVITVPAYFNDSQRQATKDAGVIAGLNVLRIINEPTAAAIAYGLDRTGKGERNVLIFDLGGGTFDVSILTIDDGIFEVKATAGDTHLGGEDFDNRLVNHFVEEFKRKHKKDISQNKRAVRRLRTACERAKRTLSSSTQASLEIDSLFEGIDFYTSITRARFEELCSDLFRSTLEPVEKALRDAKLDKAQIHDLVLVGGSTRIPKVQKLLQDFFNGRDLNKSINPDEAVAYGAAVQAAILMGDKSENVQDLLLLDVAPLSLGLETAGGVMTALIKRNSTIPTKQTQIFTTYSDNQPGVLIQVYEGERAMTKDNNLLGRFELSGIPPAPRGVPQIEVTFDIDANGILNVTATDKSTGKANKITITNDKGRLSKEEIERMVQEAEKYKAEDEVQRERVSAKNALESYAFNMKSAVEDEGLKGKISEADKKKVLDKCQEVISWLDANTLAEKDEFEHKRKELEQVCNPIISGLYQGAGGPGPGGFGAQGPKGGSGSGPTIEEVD

[12] = biological target: T6, Dual specificity protein phosphatase 6 (Rattus norvegicus, UniProt Q64346)
T6 sequence (Q64346 whole entry): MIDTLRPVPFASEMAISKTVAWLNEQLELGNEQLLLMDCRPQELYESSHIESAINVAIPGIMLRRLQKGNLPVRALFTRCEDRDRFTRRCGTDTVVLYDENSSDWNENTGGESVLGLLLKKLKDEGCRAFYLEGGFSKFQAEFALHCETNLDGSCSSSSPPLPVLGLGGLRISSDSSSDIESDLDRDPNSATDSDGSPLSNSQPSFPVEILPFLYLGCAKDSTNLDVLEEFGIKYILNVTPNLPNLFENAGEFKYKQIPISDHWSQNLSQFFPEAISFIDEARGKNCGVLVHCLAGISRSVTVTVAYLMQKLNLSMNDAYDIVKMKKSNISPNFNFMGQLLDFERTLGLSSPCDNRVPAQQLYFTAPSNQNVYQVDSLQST

[13] = biological target: T7, Tyrosine-protein phosphatase non-receptor type 7 (Homo sapiens, UniProt P35236); assay type: functional
T7 sequence (P35236 whole entry): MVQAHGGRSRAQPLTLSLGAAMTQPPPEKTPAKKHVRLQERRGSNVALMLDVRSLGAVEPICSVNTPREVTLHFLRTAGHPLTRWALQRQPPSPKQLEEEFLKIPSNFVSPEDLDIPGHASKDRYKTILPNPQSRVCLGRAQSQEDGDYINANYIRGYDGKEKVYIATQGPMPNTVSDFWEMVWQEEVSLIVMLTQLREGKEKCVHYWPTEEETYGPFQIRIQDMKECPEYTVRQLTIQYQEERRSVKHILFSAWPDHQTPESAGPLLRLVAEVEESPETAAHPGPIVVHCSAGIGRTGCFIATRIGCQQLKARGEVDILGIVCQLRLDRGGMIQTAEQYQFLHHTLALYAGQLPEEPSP

[14] = biological target: T6, Dual specificity protein phosphatase 6; assay type: functional
[15] = THP-1 cell cytotoxicity, dose response, cytotoxicity control for Vif-APOBEC3G degradation inhibitor project, THP-1 cells (AID 1117359); assay type: functional; settings: Human immunodeficiency virus 1, THP-1
Beta-galactosidase = Beta-galactosidase (Escherichia coli, UniProt Q8VNN2); test: beta-galactosidase enzyme inhibitors and activators, dose response, artefact control for CCR6 antagonist project, biochemical, E. coli enzyme, set 3 (AID 504712); assay type: functional
Sequence of Beta-galactosidase (Q8VNN2 whole entry): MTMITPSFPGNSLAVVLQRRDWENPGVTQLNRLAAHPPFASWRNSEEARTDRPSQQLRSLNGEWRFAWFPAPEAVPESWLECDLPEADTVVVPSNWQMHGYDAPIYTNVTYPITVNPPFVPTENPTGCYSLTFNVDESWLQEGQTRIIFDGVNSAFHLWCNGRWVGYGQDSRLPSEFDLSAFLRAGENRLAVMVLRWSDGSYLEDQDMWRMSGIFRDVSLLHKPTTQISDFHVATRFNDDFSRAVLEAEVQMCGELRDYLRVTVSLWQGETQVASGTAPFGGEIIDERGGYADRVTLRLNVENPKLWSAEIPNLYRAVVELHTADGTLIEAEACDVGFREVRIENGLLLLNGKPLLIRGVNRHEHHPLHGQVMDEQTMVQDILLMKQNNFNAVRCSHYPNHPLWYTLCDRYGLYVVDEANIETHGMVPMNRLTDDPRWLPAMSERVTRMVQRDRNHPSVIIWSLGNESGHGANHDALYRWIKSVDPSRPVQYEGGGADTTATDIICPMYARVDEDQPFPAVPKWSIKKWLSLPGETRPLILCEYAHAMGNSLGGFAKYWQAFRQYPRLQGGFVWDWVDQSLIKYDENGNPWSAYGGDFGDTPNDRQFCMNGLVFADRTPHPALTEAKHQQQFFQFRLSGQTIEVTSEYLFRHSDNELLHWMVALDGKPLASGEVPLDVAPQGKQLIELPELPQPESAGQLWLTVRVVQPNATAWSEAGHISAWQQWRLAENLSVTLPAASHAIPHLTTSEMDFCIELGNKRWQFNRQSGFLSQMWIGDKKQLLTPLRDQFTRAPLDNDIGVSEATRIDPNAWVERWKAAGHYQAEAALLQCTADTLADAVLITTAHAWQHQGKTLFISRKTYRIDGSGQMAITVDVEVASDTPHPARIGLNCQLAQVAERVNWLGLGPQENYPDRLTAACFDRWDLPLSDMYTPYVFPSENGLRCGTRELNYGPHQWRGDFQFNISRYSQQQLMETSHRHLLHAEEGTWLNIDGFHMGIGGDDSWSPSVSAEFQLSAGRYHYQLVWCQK

[16] = biological target: C-C chemokine receptor type 6 (Homo sapiens, UniProt P51684); test: CCR6 receptor antagonists, dose response, cell-based, luminescent beta-arrestin readout (AID 504728); assay type: functional
Sequence of C-C chemokine receptor type 6 (P51684 whole entry): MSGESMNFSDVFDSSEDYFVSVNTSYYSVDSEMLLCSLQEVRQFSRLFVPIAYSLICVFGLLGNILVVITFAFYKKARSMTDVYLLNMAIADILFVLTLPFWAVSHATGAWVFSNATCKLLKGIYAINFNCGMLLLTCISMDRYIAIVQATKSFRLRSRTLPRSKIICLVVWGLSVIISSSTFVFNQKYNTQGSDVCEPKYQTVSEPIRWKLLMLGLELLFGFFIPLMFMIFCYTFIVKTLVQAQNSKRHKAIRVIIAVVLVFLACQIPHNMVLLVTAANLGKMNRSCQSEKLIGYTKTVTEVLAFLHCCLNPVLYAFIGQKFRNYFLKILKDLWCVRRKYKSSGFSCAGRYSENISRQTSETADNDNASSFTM

## Nc1ncnc2c1C(c1ccccc1)c1c(ccc3ccccc13)O2 (stereo unspecified)
[1]
  AC50: 11.2 µM (active)

## O=C1NCN(c2ccccc2)C12CCN(C[C@H]1COc3ccccc3O1)CC2
Cytochrome P450 2C9 [2]
  AC50: 15.8 µM (inconclusive)
Cytochrome P450 1A2
  AC50: 20 µM (inconclusive)
Cytochrome P450 2C9 [3]
  AC50: 31.6 µM (inconclusive)

## CSc1nnc(NC(=O)C23CC4CC(CC(C4)C2)C3)s1
[4]
  AC50: > 380 µM (inactive)
Protein RecA
  EC50: > 380 µM (inactive)
[5]
  EC50: 8.21 µM (active)

## Clc1ccccc1-c1nnn(Cc2ccc(-c3nnn[nH]3)cc2)n1
[6]
  IC50: > 43.8 µM (not active)
[7]
  EC50: 4.37 µM (active)
[8]
  IC50: > 43.8 µM (not active)

## O=C(Nc1nc(-c2ccc(Cl)cc2)cs1)c1ccc(Cl)cc1
Vero
  CC50: > 40 µM (active)

## CNc1nc(Sc2cccc(C(F)(F)F)c2)cc(C(F)(F)F)n1
X-box-binding protein 1
  Absolute IC50 (XBP1): 10 µM

## O=C(Oc1ccc2ccccc2c1)c1ccc2c(c1)C1C=CCC1C(C(=O)O)N2 (stereo unspecified)
[9]
  IC50: 95.2 µM (active)
[10]
  IC50: 76.8 µM (active)
[11]
  IC50: 43.9 µM (active)
[12]
  IC50: 20.3 µM (active)
[13]
  IC50: 2.04 µM (active)
[14]
  IC50: 24.7 µM (active)

## CC(=O)OC(C)C1C2=C(C(=O)CC1(C)O)C(=O)c1c(ccc(-c3ccc4c(c3O)C(=O)C3=C(C4=O)C(C(C)OC(C)=O)C(C)(O)CC3=O)c1O)C2=O (stereo unspecified)
[15]
  CC50: 19.3 µM (active)
Beta-galactosidase
  IC50: > 66.6 µM (inactive)
[16]
  IC50: > 66.6 µM (inactive)
